Results as given in article PMC12522106 (Cancer Research Communications, 2025).
Blank lines part the entries; values can stand above or below the molecule they belong to.

How the values were obtained:
[1] = tested on: sarcospheres derived from 143B, MG63.3-GFP, and LM7 cell lines; assay: Sarcosphere resazurin metabolic activity, results stated across all three cell lines; format: cell-based, human; details: for effect on sarcosphere metabolic activity at Cmax: HDIs in clinical trials, tested at their Cmax, with and without MAP; for effect in initial screen: 48 hours, all three cell lines
Protocol: (§1) Khanna DVM, PhD (NCI). […] Medium was sterile filtered before use.
(§2) Highly metastatic osteosarcoma cells cultured in monolayers at 50% to 80% confluence were lifted with Accutase (Innovative Cell Technologies, Inc., cat. #NC9839010), resuspended in media, and diluted to the desired concentration. […] Following cell seeding, plates were centrifuged (1,000 g for 10 minutes at 4°C) and then incubated at 37°C with 5% CO2. […] Then, 100 μL drug treatment or vehicle was added to each well. […] Resazurin reduction on day 2 by vehicle-treated sarcospheres was compared with resazurin reduction on day 0 to calculate sarcosphere growth without drug over 2 days in selected experiments.
(§3) Plates were incubated at 37°C in 5% CO2 for 2 or 6 hours.
(§4) Sarcospheres were matured for 24 hours and then treated for 48 hours with media containing 10 µmol/L of each drug and 0.1% DMSO. […] Growth inhibition represents a more clinically translatable measure for screening studies in which a value of 0% represents stable disease since the start of treatment, values of 0% to 100% represent progression in which 100% is the untreated control, and values less than 0% represent regression in which −100% represents blank wells without sarcospheres.

LM7 sarcospheres = assay: Sarcosphere resazurin metabolic activity (initial and secondary screens); format: cell-based, human; details: for activity in combination with MAP: Bliss curve fitting, LM7
Protocol: as §1, §2, §3, §4

[2] = tested on: monolayers of either established osteosarcoma cell lines or PDX cell lines; set-up: method as in PMID 30395907, PMID 26601688, PMID 37457661, PMID 35411591; details: cited from earlier work
[3] = tested on: spheroids derived from 65 pediatric patients with various types of cancer; set-up: method as in PMID 36575299; details: including seven osteosarcomas; cited from earlier work
[4] = cited from earlier work

- effect on sarcosphere metabolic activity at Cmax [1]: most effective
SMILES: CC(C)[C@H](C(=O)Nc1ccc(C(=O)NO)cc1)c1ccccc1 [AR-42]

SMILES: COc1cc2nccc(Oc3ccc(NC(=O)C4(C(=O)Nc5ccc(F)cc5)CC4)cc3)c2cc1OC [Cabozantinib, cabozantinib]
- rank in initial screen (LM7 sarcospheres; 10 μmol/L): ranked fifteenth

- effect on sarcosphere metabolic activity at Cmax [1]: weakly inhibited
SMILES: CN(C)Cc1c(C(=O)NCCOc2ccc(C(=O)NO)cc2)oc2ccccc12 [abexinostat]

SMILES: CC(C)C[C@H](NC(=O)[C@H](Cc1ccccc1)NC(=O)c1cnccn1)B(O)O [bortezomib]
- standing in four independent screens [2]: among the top hits
- rank of 75 drugs [3]: nineteenth

SMILES: CC(C)C[C@H](NC(=O)[C@H](CCc1ccccc1)NC(=O)CN1CCOCC1)C(=O)N[C@@H](Cc1ccccc1)C(=O)N[C@@H](CC(C)C)C(=O)[C@@]1(C)CO1 [carfilzomib]
- rank of overall mean of the three Cmax/ED50 ratios among the 13 drugs ([1]; without MAP): highest overall mean
- standing in four independent screens [2]: among the top hits

SMILES: N.N.[Cl][Pt][Cl] [cisplatin]
- effect in initial screen ([1]; 10 μmol/L): no detectable effect

SMILES: COc1cccc2c1C(=O)c1c(O)c3c(c(O)c1C2=O)C[C@@](O)(C(=O)CO)C[C@@H]3O[C@H]1C[C@H](N)[C@H](O)[C@H](C)O1 [doxorubicin]
- effect in initial screen ([1]; 10 μmol/L): effective

SMILES: CO[C@H]1C[C@@H]2CC[C@@H](C)[C@@](O)(O2)C(=O)C(=O)N2CCCC[C@H]2C(=O)O[C@H]([C@H](C)C[C@@H]2CC[C@@H](OCCO)[C@H](OC)C2)CC(=O)[C@H](C)/C=C(\C)[C@@H](O)[C@@H](OC)C(=O)[C@H](C)C[C@H](C)/C=C/C=C/C=C/1C [everolimus]
- effect in initial screen ([1]; 10 μmol/L): little or no effect

- effect on sarcosphere metabolic activity at Cmax [1]: weakly inhibited
SMILES: CCN(CC)Cc1ccc2cc(COC(=O)Nc3ccc(C(=O)NO)cc3)ccc2c1 [givinostat]

- effect on sarcosphere metabolic activity at Cmax [1]: weakly inhibited
SMILES: Nc1ccccc1NC(=O)c1ccc(CNc2nccc(-c3cccnc3)n2)cc1 [mocetinostat]

SMILES: Cc1[nH]c2ccccc2c1CCNCc1ccc(/C=C/C(=O)NO)cc1 [panobinostat]
- standing in four independent screens [2]: among the top hits
- rank of 75 drugs [3]: fifteenth

SMILES: Cc1ccc(C(=O)Nc2ccc(CN3CCN(C)CC3)c(C(F)(F)F)c2)cc1C#Cc1cnc2cccnn12 [ponatinib]
- activity in combination with MAP (LM7 sarcospheres): additive-to-synergistic activity

- effect on sarcosphere metabolic activity at Cmax [1]: weakly inhibited
SMILES: CCCCc1nc2cc(/C=C/C(=O)NO)ccc2n1CCN(CC)CC [pracinostat]

- effect on sarcosphere metabolic activity at Cmax [1]: weakly inhibited
SMILES: Cn1cc(CNCC2CCN(c3ncc(C(=O)NO)cn3)CC2)c2ccccc21 [quisinostat]

- effect on sarcosphere metabolic activity at Cmax [1]: most effective
SMILES: CN(C)Cc1ccc(S(=O)(=O)n2ccc(/C=C/C(=O)NO)c2)cc1 [resminostat]

SMILES: CC[C@@]1(O)C(=O)OCc2c1cc1n(c2=O)Cc2cc3c(CN(C)C)c(O)ccc3nc2-1 [topotecan]
- rank in initial screen ([1]; 10 μmol/L): ranked eighth
- Cmax [4]: 6.5 nM

SMILES: O=C(CCCCCCC(=O)Nc1ccccc1)NO [vorinostat]
- activity in combination with MAP (LM7 sarcospheres): additive-to-synergistic activity
